Test results from the NIST ThermoML archive (doi:10.1021/acs.jced.6b00750).

Assay: xn = mol fraction of the nth substance listed
Settings: Liquid; for mass density: Vibrating wire densiometer; for viscosity: Vibrating wire viscometry

C [methane] + CCCCCCCCCCCCCCCC
Settings | mass density [kg/m3] | viscosity [mPa·s]
373.47 K, 20010 kPa, x1 = 0.3979 | 732.4 | 0.97
373.47 K, 40020 kPa, x1 = 0.3979 | 747.6 | 1.17
373.47 K, 54720 kPa, x1 = 0.3979 | 756.7 | 1.365
373.47 K, 56030 kPa, x1 = 0.3979 | 757.3 | 1.364
423.24 K, 10310 kPa, x1 = 0.2021 | 686.8 | 0.557
423.24 K, 10870 kPa, x1 = 0.2021 | 687.6 | 0.556
423.24 K, 10900 kPa, x1 = 0.2021 | 687.1 | 0.557
423.24 K, 20030 kPa, x1 = 0.2021 | 697.4 | 0.625
423.24 K, 40040 kPa, x1 = 0.2021 | 715.6 | 0.762
423.24 K, 60080 kPa, x1 = 0.2021 | 730.3 | 0.912
423.24 K, 80150 kPa, x1 = 0.2021 | 743.2 | 1.067
423.31 K, 15700 kPa, x1 = 0.1013 | 707.2 | 0.611
423.31 K, 20010 kPa, x1 = 0.1013 | 711.8 | 0.643
423.31 K, 40030 kPa, x1 = 0.1013 | 728 | 0.816
423.31 K, 60000 kPa, x1 = 0.1013 | 744.5 | –
423.31 K, 80070 kPa, x1 = 0.1013 | 754.2 | 1.133
423.58 K, 20510 kPa, x1 = 0.2976 | 703.1 | 0.612
423.58 K, 20550 kPa, x1 = 0.2976 | 703.3 | 0.606
423.58 K, 22750 kPa, x1 = 0.2976 | 705.4 | 0.618
423.58 K, 40090 kPa, x1 = 0.2976 | 720.8 | 0.734
423.58 K, 60240 kPa, x1 = 0.2976 | 735.9 | 0.873
423.58 K, 80360 kPa, x1 = 0.2976 | 748.5 | 1.03
423.94 K, 16530 kPa, x1 = 0.3979 | 696.8 | 0.565
423.94 K, 16610 kPa, x1 = 0.3979 | 697.1 | 0.555
423.94 K, 20030 kPa, x1 = 0.3979 | 700.1 | 0.587
423.94 K, 40010 kPa, x1 = 0.3979 | 718.3 | 0.717
423.94 K, 56150 kPa, x1 = 0.3979 | 730.8 | 0.822
473.17 K, 40030 kPa, x1 = 0.1013 | 705.1 | 0.591
473.17 K, 60040 kPa, x1 = 0.1013 | 721.8 | 0.687
473.17 K, 80060 kPa, x1 = 0.1013 | 735.5 | 0.794
473.36 K, 12980 kPa, x1 = 0.2021 | 656.9 | 0.388
473.36 K, 13010 kPa, x1 = 0.2021 | 656.8 | 0.387
473.36 K, 20070 kPa, x1 = 0.2021 | 666.6 | 0.425
473.36 K, 40070 kPa, x1 = 0.2021 | 688.4 | 0.53
473.36 K, 60040 kPa, x1 = 0.2021 | 706.1 | 0.627
473.36 K, 80030 kPa, x1 = 0.2021 | 720.5 | 0.732
473.4 K, 24480 kPa, x1 = 0.2976 | 676.6 | 0.431
473.4 K, 24500 kPa, x1 = 0.2976 | 676.6 | 0.427
473.4 K, 40130 kPa, x1 = 0.2976 | 693.5 | 0.501
473.4 K, 60110 kPa, x1 = 0.2976 | 710.7 | 0.6
473.4 K, 79930 kPa, x1 = 0.2976 | 724.7 | 0.717
473.68 K, 22720 kPa, x1 = 0.3979 | 673.5 | 0.42
473.68 K, 25730 kPa, x1 = 0.3979 | 676.9 | 0.435
473.68 K, 40080 kPa, x1 = 0.3979 | 692.4 | 0.502
473.68 K, 60000 kPa, x1 = 0.3979 | 709.8 | 0.596
473.68 K, 80230 kPa, x1 = 0.3979 | 724.2 | 0.704
